Data published in the NIST ThermoML archive (doi:10.1016/j.jct.2011.11.026).
± gives the expanded uncertainty stated by the source.

Experiments:
[1] = Molar enthalpy of transition or fusion; details: Crystal; DSC
[2] = molar heat capacity at constant pressure; details: 298.15 K; 101.33 kPa; Crystal; Small sample (50 mg) DSC
[3] = Crystal; DTA

Compound	Molar enthalpy of transition or fusion [1] [kcal/mol]	molar heat capacity at constant pressure [2] [J/K/mol]	Normal melting temperature [3] [°C]
Cc1ccccc1S(N)(=O)=O [o-toluenesulfonamide]	6.75 ± 0.179	193.48 ± 21	
Nc1ccc(S(N)(=O)=O)cc1 [4-aminobenzenesulfonamide]	5.33 ± 0.122	199.76 ± 10	164.53 ± 0.39
Nc1ccccc1S(N)(=O)=O [2-aminobenzenesulfonamide]	5.6 ± 0.129	173.93 ± 21	153.46 ± 0.39
Cc1ccc(S(N)(=O)=O)cc1 [p-toluenesulfonamide]	5.72 ± 0.174	205.46 ± 14	137.27 ± 0.39
NS(=O)(=O)c1ccccc1 [benzenesulfonamide]	5.67 ± 0.131	172.91 ± 9.4	152.32 ± 0.39
